Laboratory results from publication PMC11654702, “Mechanisms underlying modulation of human GlyRα3 by Zn^2+ and pH” (Science Advances, 2024).

Assays:
[1] = biological target: T1, GlyRα3 (Homo sapiens, UniProt O75311); assay: cryo-EM structures with glycine density; EC50 by two-electrode voltage clamp in Xenopus oocytes; format: cell-based
T1 construct: gene GLRA3; full-length, C-terminal thrombin site and 8x histidine tag, homopentamer in peptidisc (cryo-EM); full-length in Xenopus oocytes (TEVC)
T1 sequence (O75311 34-464): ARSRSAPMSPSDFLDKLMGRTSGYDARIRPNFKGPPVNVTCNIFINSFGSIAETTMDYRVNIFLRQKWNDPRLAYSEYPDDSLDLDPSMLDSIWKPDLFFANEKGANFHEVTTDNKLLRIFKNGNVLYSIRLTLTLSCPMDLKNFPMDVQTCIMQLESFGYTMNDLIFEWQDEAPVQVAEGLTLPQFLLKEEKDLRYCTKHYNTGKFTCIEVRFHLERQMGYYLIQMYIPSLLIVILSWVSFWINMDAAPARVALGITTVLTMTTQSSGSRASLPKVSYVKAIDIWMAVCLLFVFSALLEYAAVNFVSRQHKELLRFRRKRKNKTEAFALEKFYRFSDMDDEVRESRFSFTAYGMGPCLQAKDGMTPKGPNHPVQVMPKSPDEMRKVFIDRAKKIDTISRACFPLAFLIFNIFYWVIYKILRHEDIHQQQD

[2] = biological target: the molecule itself; assay: cryo-EM structure; GlyRα3 in peptidisc, 0.3 to 1 mg/ml, 20 mM Hepes, 150 mM NaCl, pH 8.0 or pH 6.4; 0.1 or 1 mM glycine, without or with 1 or 100 μM ZnCl2; final maps refined with C5 symmetry

`NCC(=O)O` [glycine] gave an EC50 [1] of 213 ± 13 µM.

B1: full-length human GlyRα3 (receptor, UniProt O75311 34-464, looked up)
chain: T1 sequence (O75311 34-464)
notes: Glycine receptor subunit alpha-3, human, UniProt O75311, full-length codon-optimized GLRA3 gene; last residue printed as Asp431 on mature numbering; ICD Lys312-Arg385 not modelled in the maps; Homopentamer reconstituted in peptidisc (NSP peptide scaffold); the models are numbered without it; also called hGlyRα3; glycine receptor α3; source: Sf9 cells (baculovirus, pFastBac1), purified (DDM …)
With B1 the “stoichiometry N” value [2] was 5.
